pIC50: −log10 of the molar value.
Test system: 945468-187-T-J2-PDC spheroids viability
Assay: Anticancer human tumor 945468-187-T-J2-PDC patient-derived rectal carcinoma cell line growth inhibition [PI3K]
Details: spheroids with HUVEC and MSC; for pIC50: curve of first compound; for viability, T/C: stronger effect = lower value
Procedure, shortened: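 Agents were dosed from a top concentration near clinical Cmax (otherwise 10 microM) in half-log decrements, alone or combined with PI3K inhibitors. The spheroids contain tumor cells plus endothelial (HUVEC) and MSC stroma; viability is measured.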

[1] = second compound 0.0316 µM, first compound 0.0316 µM
[2] = second compound 0.0316 µM, first compound 0.1 µM
[3] = second compound 0.1 µM, first compound 0.0316 µM
[4] = second compound 0.1 µM, first compound 0.1 µM
[5] = second compound 0.316 µM, first compound 0.0316 µM
[6] = second compound 0.316 µM, first compound 0.1 µM
[7] = second compound 1 µM, first compound 0.0316 µM
[8] = second compound 1 µM, first compound 0.1 µM
[9] = second compound 3.16 µM, first compound 0.0316 µM
[10] = second compound 3.16 µM, first compound 0.1 µM
[11] = second compound 10 µM, first compound 0.0316 µM
[12] = second compound 10 µM, first compound 0.1 µM
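Note: spheroids exposed to compounds for seven days before reading.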

CC(C)NCC(C(=O)N1CCN(c2ncnc3c2C(C)CC3O)CC1)c1ccc(Cl)cc1 (centres undefined) + Cc1nc(NC(=O)N2CCCC2C(N)=O)sc1-c1ccnc(C(C)(C)C(F)(F)F)c1
pIC50 (second compound 0.0316 µM): < 5.00 | pIC50 (second compound 0.1 µM): < 5.00 | pIC50 (second compound 0.316 µM): < 5.00 | pIC50 (second compound 1 µM): < 5.00 | pIC50 (second compound 3.16 µM): < 5.00 | pIC50 (second compound 10 µM): < 5.00 | viability, T/C [1]: 110% | viability, T/C [2]: 138% | viability, T/C (second compound 0.0316 µM, first compound 0.316 µM): 140% | viability, T/C (second compound 0.0316 µM, first compound 1 µM): 110% | viability, T/C (second compound 0.0316 µM, first compound 3.16 µM): 108% | viability, T/C (second compound 0.0316 µM, first compound 10 µM): 96.8% | viability, T/C [3]: 111% | viability, T/C [4]: 109% | viability, T/C (second compound 0.1 µM, first compound 0.316 µM): 125% | viability, T/C (second compound 0.1 µM, first compound 1 µM): 103% | viability, T/C (second compound 0.1 µM, first compound 3.16 µM): 106% | viability, T/C (second compound 0.1 µM, first compound 10 µM): 115% | viability, T/C [5]: 99% | viability, T/C [6]: 117% | viability, T/C (second compound 0.316 µM, first compound 0.316 µM): 99.7% | viability, T/C (second compound 0.316 µM, first compound 1 µM): 87.8% | viability, T/C (second compound 0.316 µM, first compound 3.16 µM): 119% | viability, T/C (second compound 0.316 µM, first compound 10 µM): 98.4% | viability, T/C [7]: 106% | viability, T/C [8]: 119% | viability, T/C (second compound 1 µM, first compound 0.316 µM): 109% | viability, T/C (second compound 1 µM, first compound 1 µM): 88.6% | viability, T/C (second compound 1 µM, first compound 3.16 µM): 121% | viability, T/C (second compound 1 µM, first compound 10 µM): 98.6% | viability, T/C [9]: 79.6% | viability, T/C [10]: 90.4% | viability, T/C (second compound 3.16 µM, first compound 0.316 µM): 103% | viability, T/C (second compound 3.16 µM, first compound 1 µM): 95.8% | viability, T/C (second compound 3.16 µM, first compound 3.16 µM): 81.5% | viability, T/C (second compound 3.16 µM, first compound 10 µM): 98.2% | viability, T/C [11]: 95.8% | viability, T/C [12]: 76.9% | viability, T/C (second compound 10 µM, first compound 0.316 µM): 73.6% | viability, T/C (second compound 10 µM, first compound 1 µM): 88.5% | viability, T/C (second compound 10 µM, first compound 3.16 µM): 93.8% | viability, T/C (second compound 10 µM, first compound 10 µM): 82.5%

Cn1ncnc1[C@H]1c2n[nH]c(=O)c3cc(F)cc(c23)N[C@@H]1c1ccc(F)cc1 + Cc1nc(NC(=O)N2CCCC2C(N)=O)sc1-c1ccnc(C(C)(C)C(F)(F)F)c1
pIC50 (second compound 0.0316 µM): < 7.00 | pIC50 (second compound 0.1 µM): < 7.00 | pIC50 (second compound 0.316 µM): < 7.00 | pIC50 (second compound 1 µM): < 7.00 | pIC50 (second compound 3.16 µM): < 7.00 | pIC50 (second compound 10 µM): < 7.00 | viability, T/C (second compound 0.0316 µM, first compound 0.000316 µM): 103% | viability, T/C (second compound 0.0316 µM, first compound 0.001 µM): 83.4% | viability, T/C (second compound 0.0316 µM, first compound 0.00316 µM): 130% | viability, T/C (second compound 0.0316 µM, first compound 0.01 µM): 100% | viability, T/C [1]: 91.6% | viability, T/C [2]: 130% | viability, T/C (second compound 0.1 µM, first compound 0.000316 µM): 106% | viability, T/C (second compound 0.1 µM, first compound 0.001 µM): 109% | viability, T/C (second compound 0.1 µM, first compound 0.00316 µM): 129% | viability, T/C (second compound 0.1 µM, first compound 0.01 µM): 91.2% | viability, T/C [3]: 117% | viability, T/C [4]: 131% | viability, T/C (second compound 0.316 µM, first compound 0.000316 µM): 110% | viability, T/C (second compound 0.316 µM, first compound 0.001 µM): 119% | viability, T/C (second compound 0.316 µM, first compound 0.00316 µM): 89.4% | viability, T/C (second compound 0.316 µM, first compound 0.01 µM): 82.2% | viability, T/C [5]: 117% | viability, T/C [6]: 117% | viability, T/C (second compound 1 µM, first compound 0.000316 µM): 108% | viability, T/C (second compound 1 µM, first compound 0.001 µM): 104% | viability, T/C (second compound 1 µM, first compound 0.00316 µM): 103% | viability, T/C (second compound 1 µM, first compound 0.01 µM): 119% | viability, T/C [7]: 134% | viability, T/C [8]: 89.3% | viability, T/C (second compound 3.16 µM, first compound 0.000316 µM): 94% | viability, T/C (second compound 3.16 µM, first compound 0.001 µM): 97.1% | viability, T/C (second compound 3.16 µM, first compound 0.00316 µM): 86.5% | viability, T/C (second compound 3.16 µM, first compound 0.01 µM): 90.2% | viability, T/C [9]: 90.4% | viability, T/C [10]: 92% | viability, T/C (second compound 10 µM, first compound 0.000316 µM): 99.3% | viability, T/C (second compound 10 µM, first compound 0.001 µM): 85.5% | viability, T/C (second compound 10 µM, first compound 0.00316 µM): 88.6% | viability, T/C (second compound 10 µM, first compound 0.01 µM): 77.8% | viability, T/C [11]: 91.5% | viability, T/C [12]: 89.8%
